{
  "source": "paper PMC7144377",
  "about": "“In Vitro and In Vivo Characterization of Dibenzothiophene Derivatives [^125I]Iodo-ASEM and [^18F]ASEM as Radiotracers of Homo- and Heteromeric α7 Nicotinic Acetylcholine Receptors” (Molecules, 2020)",
  "key": {"[1]": {"biological_target": "T1, α7 nicotinic acetylcholine receptor (α7 nAChR) (Sus scrofa, UniProt F1SNR6)", "T1 construct": "gene CHRNA7; native receptor in pig cortex sections", "T1 sequence (F1SNR6 20-499)": "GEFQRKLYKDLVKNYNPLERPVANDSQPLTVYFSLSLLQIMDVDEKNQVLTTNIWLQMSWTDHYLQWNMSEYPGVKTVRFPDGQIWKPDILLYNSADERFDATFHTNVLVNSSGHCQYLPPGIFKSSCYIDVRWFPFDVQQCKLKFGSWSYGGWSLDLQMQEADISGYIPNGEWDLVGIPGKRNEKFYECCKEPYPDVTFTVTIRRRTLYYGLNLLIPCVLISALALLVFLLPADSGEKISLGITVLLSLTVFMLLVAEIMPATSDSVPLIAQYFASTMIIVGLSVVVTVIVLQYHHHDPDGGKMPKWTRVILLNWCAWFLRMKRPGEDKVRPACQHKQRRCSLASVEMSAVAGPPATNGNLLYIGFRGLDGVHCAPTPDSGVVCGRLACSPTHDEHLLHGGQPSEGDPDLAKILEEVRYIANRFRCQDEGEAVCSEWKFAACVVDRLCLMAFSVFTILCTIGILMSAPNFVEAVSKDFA", "assay": "displacement of […]Iodo-ASEM at […] by autoradiography", "conditions": "read-out: [^125I]Iodo-ASEM Binding in the Pig Cortex, Layers 1-3 (%, mean ± S.E.M.)"}, "[2]": {"biological_target": "T1, α7 nicotinic acetylcholine receptor (α7 nAChR)", "assay": "displacement of […]Iodo-ASEM at […] by autoradiography; also blocks […]ASEM PET in vivo", "conditions": "read-out: [^125I]Iodo-ASEM Binding in the Pig Cortex, Layers 1-3 (%, mean ± S.E.M.)"}},
  "data": [
    {"smiles": "CN1C[C@@H]2CN(c3ccc(-c4ccccc4)nn3)C[C@@H]2C1", "note": "[A-582941]", "values": [
      {"measurement": "activity at 10 µM", "setting": "[1]", "value": "3.22 ± 0.28", "unit": "%"}
    ]},
    {"smiles": "O=C(Oc1ccc(Br)cc1)N1CCN2CCC1CC2", "note": "[SSR-180,711]", "values": [
      {"measurement": "activity at 10 µM", "setting": "[2]", "value": "2.92 ± 0.35", "unit": "%"}
    ]},
    {"smiles": "O=C(N[C@@H]1C2CCN(CC2)[C@H]1Cc1cccnc1)c1cc2ccccc2o1", "note": "[TC-5619]", "values": [
      {"measurement": "activity at 10 µM", "setting": "[1]", "value": "7.88 ± 1.65", "unit": "%"}
    ]},
    {"smiles": "CCN1C[C@]2(COC(=O)c3ccccc3N3C(=O)C[C@H](C)C3=O)CC[C@H](OC)[C@@]34[C@@H]5C[C@H]6[C@H](OC)[C@@H]5[C@](O)(C[C@@H]6OC)[C@@](O)([C@@H](OC)[C@H]23)[C@@H]14", "note": "[methyllycaconitine]", "values": [
      {"measurement": "activity at 10 µM", "setting": "[1]", "value": "20.5 ± 2.18", "unit": "%"}
    ]}
  ]
}
